Laboratory results reported in patent US12703729B2, “GIP agonist compounds and methods” (Zealand Pharma A/S, priority 2014, dated 2026).
pEC50: −log10 of the molar value. Starred links: 1 amine or outer side, 2 acyl side, 3 side chain; linkers in the order of their positions; H or OH if unused. Non-standard residues stand in square brackets, D forms with d. Residues, ends and D or L forms follow the SMILES beside them. Groups on a side chain read outwards from the residue. *: point of attachment. C20 diacid = O=C(O)CCCCCCCCCCCCCCCCCCC(=O)*; γGlu = O=C(O)[C@H](CCC(=O)[*:2])N[*:1]; AEEA = NCCOCCOCC(=O)O; Aib = CC(C)(N)C(=O)O

Key:
[1] = molecular target: T1, human GIP receptor (GIP R) (Homo sapiens, UniProt P48546); assay: Activity assay at human GIP receptor, cAMP induction (AlphaScreen), Example 3
T1 sequence (P48546 22-466): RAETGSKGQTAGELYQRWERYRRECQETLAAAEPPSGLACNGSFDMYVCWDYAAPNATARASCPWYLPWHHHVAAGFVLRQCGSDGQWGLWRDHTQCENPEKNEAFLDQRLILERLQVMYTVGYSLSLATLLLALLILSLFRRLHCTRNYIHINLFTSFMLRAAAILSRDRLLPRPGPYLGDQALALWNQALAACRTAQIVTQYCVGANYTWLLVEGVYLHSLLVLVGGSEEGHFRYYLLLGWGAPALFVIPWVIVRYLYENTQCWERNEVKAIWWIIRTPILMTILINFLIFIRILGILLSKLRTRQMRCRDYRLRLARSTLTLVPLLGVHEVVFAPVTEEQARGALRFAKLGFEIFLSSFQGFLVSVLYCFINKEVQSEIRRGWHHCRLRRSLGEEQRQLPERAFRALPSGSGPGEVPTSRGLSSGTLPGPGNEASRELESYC

[2] = molecular target: human GLP-1 receptor (GLP-1R) (Homo sapiens, UniProt P43220); assay: Activity assay at human GLP-1 receptor, cAMP induction (AlphaScreen), Example 3
human GIP R = molecular target: T2, human GIP R (Homo sapiens, UniProt P48546); assay: cell-based
T2 sequence (P48546 22-466): T1 sequence (P48546 22-466)

Sequence of human GLP-1 receptor (GLP-1R) (P43220 24-463): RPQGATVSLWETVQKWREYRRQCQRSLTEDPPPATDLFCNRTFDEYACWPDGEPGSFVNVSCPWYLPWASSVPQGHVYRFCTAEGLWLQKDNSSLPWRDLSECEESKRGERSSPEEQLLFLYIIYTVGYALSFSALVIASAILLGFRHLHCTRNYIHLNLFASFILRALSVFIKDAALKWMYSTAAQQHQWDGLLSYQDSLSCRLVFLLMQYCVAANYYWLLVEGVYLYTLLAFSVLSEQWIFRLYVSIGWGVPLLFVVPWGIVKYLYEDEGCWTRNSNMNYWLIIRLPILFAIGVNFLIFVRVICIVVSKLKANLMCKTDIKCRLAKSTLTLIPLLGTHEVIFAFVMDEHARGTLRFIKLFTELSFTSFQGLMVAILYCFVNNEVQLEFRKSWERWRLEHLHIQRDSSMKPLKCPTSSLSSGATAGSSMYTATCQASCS

| Structure (SMILES) | pEC50 [1] | pEC50 [2] | pEC50 (human GIP R) |
| --- | --- | --- | --- |
| CC[C@H](C)[C@H](NC(=O)[C@H](CO)NC(=O)[C@H](Cc1ccc(O)cc1)NC(=O)[C@H](CC(=O)O)NC(=O)[C@H](CO)NC(=O)[C@@H](NC(=O)[C@H](Cc1ccccc1)NC(=O)[C@@H](NC(=O)CNC(=O)[C@H](CCC(=O)O)NC(=O)C(C)(C)NC(=O)[C@@H](N)Cc1ccc(O)cc1)[C@@H](C)O)[C@@H](C)CC)C(=O)N[C@@H](CCC(=O)O)C(=O)N[C@@H](CC(C)C)C(=O)N[C@@H](CC(=O)O)C(=O)N[C@@H](CCCCN)C(=O)N[C@@H](CCCCNC(=O)COCCOCCNC(=O)COCCOCCNC(=O)CC[C@H](NC(=O)CCCCCCCCCCCCCCCCCCC(=O)O)C(=O)O)C(=O)N[C@@H](Cc1c[nH]cn1)C(=O)N[C@@H](CCC(N)=O)C(=O)N[C@@H](CCC(N)=O)C(=O)N[C@@H](CC(=O)O)C(=O)N[C@@H](Cc1ccccc1)C(=O)N[C@H](C(=O)N[C@@H](CC(N)=O)C(=O)N[C@@H](Cc1c[nH]c2ccccc12)C(=O)N[C@@H](CC(C)C)C(=O)N[C@@H](CC(C)C)C(=O)N[C@@H](C)C(=O)N[C@@H](CCC(N)=O)C(=O)NCC(=O)N1CCC[C@H]1C(=O)N[C@@H](CO)C(=O)N[C@@H](CO)C(=O)NCC(=O)N[C@@H](C)C(=O)N1CCC[C@H]1C(=O)N1CCC[C@H]1C(=O)N1CCC[C@H]1C(=O)N[C@@H](CO)C(N)=O)C(C)C [Compound 9] (H-Y[Aib]EGTFISDYSIELDKK([AEEA-AEEA-γGlu-C20 diacid])HQQDFVNWLLAQGPSSGAPPPS-NH2) | 11.05 | < 8.52 | 11.10 |
| CC[C@H](C)[C@H](NC(=O)[C@H](CO)NC(=O)[C@H](Cc1ccc(O)cc1)NC(=O)[C@H](CC(=O)O)NC(=O)[C@H](CO)NC(=O)[C@@H](NC(=O)[C@H](Cc1ccccc1)NC(=O)[C@@H](NC(=O)CNC(=O)[C@H](CCC(=O)O)NC(=O)C(C)(C)NC(=O)[C@@H](N)Cc1ccc(O)cc1)[C@@H](C)O)[C@@H](C)CC)C(=O)N[C@@H](CCC(=O)O)C(=O)N[C@@H](CC(C)C)C(=O)N[C@@H](CCC(=O)O)C(=O)N[C@@H](CCCCN)C(=O)N[C@@H](CCCCNC(=O)COCCOCCNC(=O)COCCOCCNC(=O)CC[C@H](NC(=O)CCCCCCCCCCCCCCCCCCC(=O)O)C(=O)O)C(=O)N[C@@H](C)C(=O)N[C@@H](C)C(=O)N[C@@H](CCCCN)C(=O)N[C@@H](CCC(=O)O)C(=O)N[C@@H](Cc1ccccc1)C(=O)N[C@H](C(=O)N[C@@H](CC(N)=O)C(=O)N[C@@H](Cc1c[nH]c2ccccc12)C(=O)N[C@@H](CC(C)C)C(=O)N[C@@H](CC(C)C)C(=O)N[C@@H](C)C(=O)N[C@@H](CCC(N)=O)C(=O)NCC(=O)N1CCC[C@H]1C(=O)N[C@@H](CO)C(=O)N[C@@H](CO)C(=O)NCC(=O)N[C@@H](C)C(=O)N1CCC[C@H]1C(=O)N1CCC[C@H]1C(=O)N1CCC[C@H]1C(=O)N[C@@H](CO)C(N)=O)C(C)C [Compound 11] (H-Y[Aib]EGTFISDYSIELEKK([AEEA-AEEA-γGlu-C20 diacid])AAKEFVNWLLAQGPSSGAPPPS-NH2) | 11.10 | < 8.52 | 11.05 |
| CC[C@H](C)[C@H](NC(=O)[C@H](CCCCN)NC(=O)[C@H](CCC(=O)O)NC(=O)[C@H](CC(C)C)NC(=O)[C@H](CCC(=O)O)NC(=O)[C@@H](NC(=O)[C@H](CO)NC(=O)[C@H](Cc1ccc(O)cc1)NC(=O)[C@H](CC(=O)O)NC(=O)[C@H](CO)NC(=O)[C@@H](NC(=O)[C@H](Cc1ccccc1)NC(=O)[C@@H](NC(=O)CNC(=O)[C@H](CCC(=O)O)NC(=O)C(C)(C)NC(=O)[C@@H](N)Cc1ccc(O)cc1)[C@@H](C)O)[C@@H](C)CC)[C@@H](C)CC)C(=O)N[C@@H](C)C(=O)N[C@@H](CCC(N)=O)C(=O)N[C@@H](CCCNC(=N)N)C(=O)N[C@@H](C)C(=O)N[C@@H](Cc1ccccc1)C(=O)N[C@H](C(=O)N[C@@H](CCC(=O)O)C(=O)N[C@@H](Cc1c[nH]c2ccccc12)C(=O)N[C@@H](CC(C)C)C(=O)N[C@@H](CC(C)C)C(=O)N[C@@H](C)C(=O)N[C@@H](CCC(N)=O)C(=O)N[C@@H](CCCCNC(=O)COCCOCCNC(=O)COCCOCCNC(=O)CC[C@H](NC(=O)CCCCCCCCCCCCCCCCCCC(=O)O)C(=O)O)C(N)=O)C(C)C [Compound 14] (H-Y[Aib]EGTFISDYSIELEKIAQRAFVEWLLAQK([AEEA-AEEA-γGlu-C20 diacid])-NH2) | 10.85 | < 8.00 | 10.62 |
